Reference: PubChem BioAssay AID2060331 (Molecular Pharmacology Branch, DTP, NCI, 2025)

Test system: Hs578T multi-cell spheroids, viability
Experiment: Anticancer human tumor Hs578T cell line growth inhibition [IpAb];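 further: drug exposure lasted 7 days before readout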
Settings: for IC50: curve of first compound; for viability, T/C: stronger effect = lower value
Source text: Combinatorial screen of targeted agents with ipatasertib and abemaciclib in multi-cell type tumor spheroids
A high-throughput screen of multi-cell type tumor spheroids was designed to identify active combinations of targeted small molecules and ipatasertib or abemaciclib. Complex spheroids include a stromal component modeled by human endothelial cells (HUVEC) and fibroblasts modeled by human mesenchymal stem cells (MSCs). The concentration ranges selected for each drug and investigational agent were based upon clinically achievable concentrations if the clinical Cmax of the agent was known.
Compounds. The drugs and investigational agents: ipatasertib (NSC767898), abemaciclib(NSC768073), selumetinib (NSC741078), trametinib (758246), adavosertib (NSC754352), everolimus (NSC733504), sapanisertib (NSC764658), vemurafenib (NSC761431), venetoclax (NSC766270), copanlisib (NSC809693), apelisib (NSC765974), palbociblib (NSC758247), vemurafenib (NSC761431), dabrafenib (NSC764134), ravoxertinib (NSC781343), BMS-387032 (NSC767048), sotorasib (NSC818433), talazoparib (NSC767125) and afursertib (NSC778305), were obtained from the National Cancer Institute (NCI) Developmental Therapeutics Program Chemical Repository. The FDA-approved anticancer drug set is available from the NCI Developmental Therapeutics Program. […] The stock solutions were prepared in dimethyl sulfoxide (DMSO, Sigma-Aldrich, St. Louis, MO, cat. D2650) at 800-fold the tested concentration and stored at -70 degrees C prior to their use. All drugs and investigational agents were tested over a range starting from a high concentration at or near the clinical Cmax and decreasing in half-log increments. If the clinical Cmax for an agent had not been determined, the highest concentration tested was 10 microM.
NCI60 Cell Culture. NCI60 cell lines were obtained from the NCI Developmental Therapeutics Program Tumor Repository. For each lot of cells, the Repository performed Applied Biosystems AmpFLSTR Identifiler testing with PCR amplification to confirm consistency with the published Identifier STR profile for each cell line. Cells were kept in continuous culture for no more than 20 passages. The optimal seeding densities for each of the cell lines at each time point assessed were determined prior to performing the concentration response studies. Briefly, the NCI60 human tumor lines were grown as monolayers in RPMI 1640 medium supplemented with 10% FBS and 2 mmol/L L-glutamine.
An additional 9 lines were from the NCI60 cell line panel including MDA-MB-231 breast carcinoma, MDA-MB-468 breast carcinoma, MCF7 breast carcinoma, Hs578T breast carcinoma, MALME-3M melanoma, SK-MEL-2 melanoma, SK-OV-3 ovarian carcinoma, DU-145 prostate carcinoma, PC-3 prostate carcinoma, all cell lines along with major genetic alterations are listed on Table 2. Pooled donor human umbilical vein endothelial cells (HUVEC, Lonza, cat. CC-2519) and human mesenchymal stem cells (hMSC, Lonza, cat. PT-2501) were purchased from Lonza (Walkersville, MD).
PDMR cell lines were grown in complete medium (DC medium): Dulbecco's modified Eagle's medium (DMEM)/F12 supplemented with 5% fetal bovine serum (FBS), 2 mM L-glutamine, 100 U/mL penicillin and 100 µg/ml streptomycin, 0.4 µg/ml hydrocortisone, 10 ng/ml epidermal growth factor (EGF) recombinant human protein, 24 µg/mL adenine, and 0.1 mg/mL primocin. During culture from frozen stock vials, PDMR cells were cultured in the same medium containing 10 µM Y-27632 (see Table 3). The PDCs were cultured in complete DMEM/F12 media without 10 microM Y-27632 dihydrochloride for at least two passages prior to the screen. The pooled donor HUVEC and hMSC were cultured in endothelial cell growth medium 2 (PromoCell, Heidelberg, Germany, cat. C-22011) and mesenchymal stem cell growth medium 2 (PromoCell, cat. C-28009), respectively. For all experiments, HUVEC and hMSC were used at passages </=5.
[…]

**Q.** With CC(=O)c1c(C)c2cnc(Nc3ccc(N4CCNCC4)cn3)nc2n(C2CCCC2)c1=O + CC(C)NCC(C(=O)N1CCN(c2ncnc3c2C(C)CC3O)CC1)c1ccc(Cl)cc1 as the molecule, how does the IC50 (second compound 0.1 µM) read?
**A.** > 300 nM

**Q.** And the IC50 (second compound 0.316 µM)?
**A.** > 300 nM

**Q.** What about the IC50 (second compound 1 µM) of the same molecule?
**A.** 20 nM

**Q.** And the IC50 (second compound 3.16 µM)?
**A.** 11.1 nM

**Q.** What about the IC50 (second compound 10 µM) of the same molecule?
**A.** < 0.949 nM

**Q.** What about the viability, T/C (second compound 0.1 µM, first compound 0.000949 µM) of the same molecule?
**A.** 96.7%

**Q.** What about the viability, T/C (second compound 0.1 µM, first compound 0.003 µM) of the same molecule?
**A.** 86.1%

**Q.** And the viability, T/C (second compound 0.1 µM, first compound 0.00949 µM)?
**A.** 83.3%

**Q.** And the viability, T/C (second compound 0.1 µM, first compound 0.03 µM)?
**A.** 71.4%

**Q.** And the viability, T/C (second compound 0.1 µM, first compound 0.0949 µM)?
**A.** 64.2%

**Q.** What about the viability, T/C (second compound 0.1 µM, first compound 0.3 µM) of the same molecule?
**A.** 60.1%

**Q.** What about the viability, T/C (second compound 0.316 µM, first compound 0.000949 µM) of the same molecule?
**A.** 92.7%

**Q.** And the viability, T/C (second compound 0.316 µM, first compound 0.003 µM)?
**A.** 79.7%

**Q.** What about the viability, T/C (second compound 0.316 µM, first compound 0.00949 µM) of the same molecule?
**A.** 70.3%

**Q.** And the viability, T/C (second compound 0.316 µM, first compound 0.03 µM)?
**A.** 62.3%

**Q.** And the viability, T/C (second compound 0.316 µM, first compound 0.0949 µM)?
**A.** 59.4%

**Q.** What about the viability, T/C (second compound 0.316 µM, first compound 0.3 µM) of the same molecule?
**A.** 49.5%

**Q.** And the viability, T/C (second compound 1 µM, first compound 0.000949 µM)?
**A.** 62.7%

**Q.** What about the viability, T/C (second compound 1 µM, first compound 0.003 µM) of the same molecule?
**A.** 67.7%

**Q.** What about the viability, T/C (second compound 1 µM, first compound 0.00949 µM) of the same molecule?
**A.** 56.1%

**Q.** What about the viability, T/C (second compound 1 µM, first compound 0.03 µM) of the same molecule?
**A.** 48.6%

**Q.** What about the viability, T/C (second compound 1 µM, first compound 0.0949 µM) of the same molecule?
**A.** 43%

**Q.** What about the viability, T/C (second compound 1 µM, first compound 0.3 µM) of the same molecule?
**A.** 47.2%

**Q.** And the viability, T/C (second compound 3.16 µM, first compound 0.000949 µM)?
**A.** 55.6%

**Q.** What about the viability, T/C (second compound 3.16 µM, first compound 0.003 µM) of the same molecule?
**A.** 58.8%

**Q.** And the viability, T/C (second compound 3.16 µM, first compound 0.00949 µM)?
**A.** 52.8%

**Q.** What about the viability, T/C (second compound 3.16 µM, first compound 0.03 µM) of the same molecule?
**A.** 41.2%

**Q.** And the viability, T/C (second compound 3.16 µM, first compound 0.0949 µM)?
**A.** 42.3%

**Q.** And the viability, T/C (second compound 3.16 µM, first compound 0.3 µM)?
**A.** 38.8%

**Q.** And the viability, T/C (second compound 10 µM, first compound 0.000949 µM)?
**A.** 48.7%

**Q.** And the viability, T/C (second compound 10 µM, first compound 0.003 µM)?
**A.** 47.5%

**Q.** What about the viability, T/C (second compound 10 µM, first compound 0.00949 µM) of the same molecule?
**A.** 41.7%

**Q.** What about the viability, T/C (second compound 10 µM, first compound 0.03 µM) of the same molecule?
**A.** 35.5%

**Q.** What about the viability, T/C (second compound 10 µM, first compound 0.0949 µM) of the same molecule?
**A.** 35.6%

**Q.** What about the viability, T/C (second compound 10 µM, first compound 0.3 µM) of the same molecule?
**A.** 37.3%
